System: Stress protein genes
Assay: DNA chip mRNA expression in yeast, stress protein genes (Table 6)
Format: cell-based, Saccharomyces cerevisiae S288C
Procedure: Yeast (Saccharomyces cerevisiae S288C (α SUC2mal mel gap2 CUP1)) were incubated at 25° C. on YPD medium (yeast extract 1%, polypepton 2%, glucose 2%). One of toxic chemical substances was added to the cells at logarithmic growth phase, and the cells were further incubated for two hours. Cells were cultured without any chemical substance in the same condition, and were used as control. Concentrations of the chemical substances were defined to inhibit the growth of the yeast but not lead to death.
After completion of the incubation, the culture was centrifuged to collect the cells. To the cells, sodium acetate buffer (50 mM sodium acetate, 10 mM EDTA, 1% SDS) was added, and the mixture was shaken at 65° C. for five minutes, followed by returning to room temperature, and obtaining the supernatant, of which the procedures were repeated two times. To the supernatant, ½ amount of a solution of phenol/chloroform was added, and the mixture was centrifuged to give a supernatant, which was added with an equal amount of chloroform, and the mixture was centrifuged to give a supernatant. To the supernatant, an equal amount of isopropanol containing 0.3 M sodium acetate was added, and the mixture was allowed to stand at room temperature for 30 minutes, after which the mixture was centrifuged to give a sediment of the whole RNAs. Seventy % ethanol was added to the sediment, and the mixture was again centrifuged to give a sediment, which was then dried and dissolved in water. mRNA was isolated from the whole RNAs as followings. In view of the fact that a poly A chain is attached to the 3′ terminus of mRNA, a polynucleotide having a poly T structure which was immobilized on the surface of latex beads was used to trap the mRNA, and then the mRNA was washed and eluted with spine column (Oligotex-dT30<Super>mRNA Purification Kit, Takara). Reverse transcription of the mRNA was conducted with a reverse transcriptase (Super Script II Reverse Transcriptase; catalogue No. 18064-014, GibcoBRL) using fluorescence-labeled nucleotides to give cDNAs that were introduced with Cy3-dUTP or Cy5-dUTP during the reverse transcription.
The labeled cDNAs were dissolved in TE buffer (10mM Tris-HCl/1 mM EDTA, pH8.0), and the solution was dropped on the DNA chip containing the whole genes of yeast (DNA Chip Research Inc. Japan) so that the cDNAs were hybridized on the DNA chip at 65° C. for over 12 hours. The fluoresces intensity of the DNA chip was read with a scanner, and the ratio relative to the fluorescence intensity resulting from the absence of chemical substance was estimated as the following, which is shown in Tables 1 to 9: […]

Compound: [Cl][Cd][Cl] [(2), CdCl2]
- The level of expressed mRNA in the presence of chemical substance/The level of expressed mRNA in the absence of chemical substance (yeast gene YIL033C): 1.3
- The level of expressed mRNA in the presence of chemical substance/The level of expressed mRNA in the absence of chemical substance (yeast gene YIR037W): 2.2
- The level of expressed mRNA in the presence of chemical substance/The level of expressed mRNA in the absence of chemical substance (yeast gene YIR038C): 3.5
- The level of expressed mRNA in the presence of chemical substance/The level of expressed mRNA in the absence of chemical substance (yeast gene YJL128C): 1.4
- The level of expressed mRNA in the presence of chemical substance/The level of expressed mRNA in the absence of chemical substance (yeast gene YJL158C): 0.6
- The level of expressed mRNA in the presence of chemical substance/The level of expressed mRNA in the absence of chemical substance (yeast gene YJL159W): 1.3
- The level of expressed mRNA in the presence of chemical substance/The level of expressed mRNA in the absence of chemical substance (yeast gene YJL165C): 0.8
- The level of expressed mRNA in the presence of chemical substance/The level of expressed mRNA in the absence of chemical substance (yeast gene YJR045C): 1.9
- The level of expressed mRNA in the presence of chemical substance/The level of expressed mRNA in the absence of chemical substance (yeast gene YJR090C): 1.0
- The level of expressed mRNA in the presence of chemical substance/The level of expressed mRNA in the absence of chemical substance (yeast gene YKL161C): 0.8
- The level of expressed mRNA in the presence of chemical substance/The level of expressed mRNA in the absence of chemical substance (yeast gene YKL163W): 1.4
- The level of expressed mRNA in the presence of chemical substance/The level of expressed mRNA in the absence of chemical substance (yeast gene YKL164C): 1.1
- The level of expressed mRNA in the presence of chemical substance/The level of expressed mRNA in the absence of chemical substance (yeast gene YKL210W): 1.7
- The level of expressed mRNA in the presence of chemical substance/The level of expressed mRNA in the absence of chemical substance (yeast gene YKR053C): 2.0
- The level of expressed mRNA in the presence of chemical substance/The level of expressed mRNA in the absence of chemical substance (yeast gene YLL024C): 1.6
- The level of expressed mRNA in the presence of chemical substance/The level of expressed mRNA in the absence of chemical substance (yeast gene YLL026W): 2.9
- The level of expressed mRNA in the presence of chemical substance/The level of expressed mRNA in the absence of chemical substance (yeast gene YLL039C): 1.0
- The level of expressed mRNA in the presence of chemical substance/The level of expressed mRNA in the absence of chemical substance (yeast gene YLL060C): 4.2
- The level of expressed mRNA in the presence of chemical substance/The level of expressed mRNA in the absence of chemical substance (yeast gene YLR006C): 0.7
- The level of expressed mRNA in the presence of chemical substance/The level of expressed mRNA in the absence of chemical substance (yeast gene YLR109W): 2.9
- The level of expressed mRNA in the presence of chemical substance/The level of expressed mRNA in the absence of chemical substance (yeast gene YLR259C): 1.0
- The level of expressed mRNA in the presence of chemical substance/The level of expressed mRNA in the absence of chemical substance (yeast gene YML007W): 0.8
- The level of expressed mRNA in the presence of chemical substance/The level of expressed mRNA in the absence of chemical substance (yeast gene YML070W): 1.7
- The level of expressed mRNA in the presence of chemical substance/The level of expressed mRNA in the absence of chemical substance (yeast gene YMR021C): 0.7
- The level of expressed mRNA in the presence of chemical substance/The level of expressed mRNA in the absence of chemical substance (yeast gene YMR173W): 3.6
- The level of expressed mRNA in the presence of chemical substance/The level of expressed mRNA in the absence of chemical substance (yeast gene YMR186W): 1.4
- The level of expressed mRNA in the presence of chemical substance/The level of expressed mRNA in the absence of chemical substance (yeast gene YNL064C): 1.8
- The level of expressed mRNA in the presence of chemical substance/The level of expressed mRNA in the absence of chemical substance (yeast gene YNL160W): 3.7
- The level of expressed mRNA in the presence of chemical substance/The level of expressed mRNA in the absence of chemical substance (yeast gene YNL241C): 2.5
- The level of expressed mRNA in the presence of chemical substance/The level of expressed mRNA in the absence of chemical substance (yeast gene YNR076W): 1.3
- The level of expressed mRNA in the presence of chemical substance/The level of expressed mRNA in the absence of chemical substance (yeast gene YOL064C): 2.1
- The level of expressed mRNA in the presence of chemical substance/The level of expressed mRNA in the absence of chemical substance (yeast gene YOL161C): 1.1
- The level of expressed mRNA in the presence of chemical substance/The level of expressed mRNA in the absence of chemical substance (yeast gene YOR008C): 0.8
- The level of expressed mRNA in the presence of chemical substance/The level of expressed mRNA in the absence of chemical substance (yeast gene YOR009W): 0.8
- The level of expressed mRNA in the presence of chemical substance/The level of expressed mRNA in the absence of chemical substance (yeast gene YOR010C): 0.7
- The level of expressed mRNA in the presence of chemical substance/The level of expressed mRNA in the absence of chemical substance (yeast gene YOR027W): 2.4
- The level of expressed mRNA in the presence of chemical substance/The level of expressed mRNA in the absence of chemical substance (yeast gene YOR208W): 1.0
- The level of expressed mRNA in the presence of chemical substance/The level of expressed mRNA in the absence of chemical substance (yeast gene YPL059W): 0.9
- The level of expressed mRNA in the presence of chemical substance/The level of expressed mRNA in the absence of chemical substance (yeast gene YPL106C): 1.7
- The level of expressed mRNA in the presence of chemical substance/The level of expressed mRNA in the absence of chemical substance (yeast gene YPL140C): 1.3
- The level of expressed mRNA in the presence of chemical substance/The level of expressed mRNA in the absence of chemical substance (yeast gene YPL194W): 1.4
- The level of expressed mRNA in the presence of chemical substance/The level of expressed mRNA in the absence of chemical substance (yeast gene YPL223C): 20.0
- The level of expressed mRNA in the presence of chemical substance/The level of expressed mRNA in the absence of chemical substance (yeast gene YPL240C): 1.4
- The level of expressed mRNA in the presence of chemical substance/The level of expressed mRNA in the absence of chemical substance (yeast gene YPR005C): 0.8
- The level of expressed mRNA in the presence of chemical substance/The level of expressed mRNA in the absence of chemical substance (yeast gene YPR026W): 1.2
